# Data published in PubChem BioAssay (NCI).
# “And” between values parts separate entries of the source, which are not always exact repeats. Identical values can stand only once.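 96-well plates; 48 h exposure; 5 concentrations. Endpoints by linear interpolation between flanking doses. Not reached: highest tested concentration assigned. The concentration for 50% growth inhibition is given as GI50. TGI denotes the concentration required for complete inhibition of growth.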
# What was measured:
# Test in all cases: NCI-60 cell line screen, 48 h
# UACC-62 melanoma = tested on: UACC-62 melanoma
# IGROV1 ovarian = tested on: IGROV1 ovarian
# NCI-H460 lung = tested on: NCI-H460 lung
# TK-10 renal = tested on: TK-10 renal
# 786-0 renal = tested on: 786-0 renal
# A549 NSCLC = tested on: A549 NSCLC
# NCI-H23 lung = tested on: NCI-H23 lung
# KM12 colon = tested on: KM12 colon
# SNB-75 CNS = tested on: SNB-75 CNS
# RPMI-8226 leukemia = tested on: RPMI-8226 leukemia
SMILES,GI50 (UACC-62 melanoma),TGI (UACC-62 melanoma),GI50 (IGROV1 ovarian),TGI (IGROV1 ovarian),GI50 (NCI-H460 lung),TGI (NCI-H460 lung),GI50 (TK-10 renal),TGI (TK-10 renal),GI50 (786-0 renal),TGI (786-0 renal),GI50 (A549 NSCLC),TGI (A549 NSCLC),GI50 (NCI-H23 lung),TGI (NCI-H23 lung),GI50 (KM12 colon),TGI (KM12 colon),GI50 (SNB-75 CNS),TGI (SNB-75 CNS),GI50 (RPMI-8226 leukemia),TGI (RPMI-8226 leukemia)
O=C1c2cc(Cl)ccc2S(=O)(=O)c2c(NCCCNCCO)nc3ccccc3c21,1.61 µM,3.35 µM,2.88 µM,9.56 µM,2.02 µM,4.73 µM,1.21 µM,2.46 µM,1.71 µM,3.34 µM,3.22 µM,12.3 µM,1.77 µM,4.4 µM,1.59 µM,3.3 µM,2.15 µM,9.35 µM,0.888 µM,3.28 µM
C[C@@H]1OC(O)[C@@H](F)[C@H](O)[C@@H]1O (stereo partly drawn),> 100 µM,> 100 µM,> 100 µM,> 100 µM,> 100 µM,> 100 µM,> 100 µM,> 100 µM,> 100 µM,> 100 µM,> 100 µM,> 100 µM,> 100 µM,> 100 µM,> 100 µM,> 100 µM,> 100 µM,> 100 µM,> 100 µM,> 100 µM
CC[C@@H]1C(=O)N(C)c2cnc(Nc3ccc(C(=O)NC4CCN(C)CC4)cc3OC)nc2N1C1CCCC1,0.0101 µM and 0.0252 µM,> 4.41 µM and 4.21 µM,,4.15 µM and 11.8 µM,0.00386 µM and < 0.01 µM,> 10 µM and 6.64 µM,0.285 µM and 0.123 µM,> 7.36 µM and 5.56 µM,0.025 µM and 0.0451 µM,1.62 µM and 3.98 µM,0.00602 µM and < 0.0113 µM,> 10 µM and 3.5 µM,0.00443 µM and < 0.01 µM,> 5.03 µM and 6.4 µM,0.00346 µM and < 0.01 µM,> 10 µM and 5.65 µM,0.00411 µM and < 0.0112 µM,0.233 µM and 0.17 µM,0.0198 µM and 0.0395 µM,1.69 µM and 1.91 µM
Oc1c(CN2CCC(N3CCCCC3)CC2)cc(Cc2cc(CN3CCC(N4CCCCC4)CC3)c(O)c3ncccc23)c2cccnc12,0.609 µM,5.17 µM,1.16 µM,17.3 µM,0.287 µM,11.5 µM,1.14 µM,10.3 µM,1.53 µM,5.96 µM,1.61 µM,5.75 µM,2.28 µM,14 µM,0.677 µM,14.6 µM,1.65 µM,13.4 µM,1.86 µM,7.22 µM
Cn1c(=O)c2[nH]c(SCc3ccccn3)nc2n(C)c1=S,,> 100 µM,,> 100 µM,,> 100 µM,,> 100 µM,,> 100 µM,,> 100 µM,,> 100 µM,,> 100 µM,,45.2 µM,,> 100 µM
CN1CCN(C)C12C=c1ccccc1=CC21CC1,,34 µM,,> 100 µM,,> 75.1 µM,,> 100 µM,,> 100 µM,,> 100 µM,,> 100 µM,,68.4 µM,,> 93.1 µM,,75.1 µM
COc1ccc(/C(COc2c(-c3ccccc3)oc3ccccc3c2=O)=N\O)cc1,12.7 µM,43.5 µM,22.9 µM,> 50 µM,12.3 µM,39.6 µM,10.2 µM,26.2 µM,40.6 µM,> 50 µM,23.2 µM,> 50 µM,24.2 µM,> 50 µM,9.46 µM,23.4 µM,22.2 µM,> 50 µM,21.5 µM,> 50 µM
CN1CCN(C(=O)OCc2nc3c(N4CCOCC4)nc(Cl)nc3n2C)CC1,1.38 µM,2.8 µM,1.24 µM,2.57 µM,1.64 µM,3.51 µM,1.59 µM,3.05 µM,1.56 µM,3 µM,1.81 µM,5.25 µM,1.55 µM,3.3 µM,2.05 µM,6.08 µM,1.35 µM,2.73 µM,0.33 µM,1.63 µM
Cn1c2ccccc2c2c(-c3ccccc3)[n+]3ccncc3nc21,> 100 µM,> 100 µM,70.8 µM,> 100 µM,> 100 µM,> 100 µM,> 100 µM,> 100 µM,> 100 µM,> 100 µM,> 100 µM,> 100 µM,> 100 µM,> 100 µM,74.9 µM,> 100 µM,> 100 µM,> 100 µM,36.1 µM,> 100 µM
CC1(C)OC2[C@@H](CNC(=O)NC(=O)NC(=O)CI)O[C@@H](n3cnc4c(NC(=O)Nc5ccccc5)ncnc43)[C@H]2O1 (stereo partly drawn),8.44 µM,17.1 µM,2.15 µM,8.6 µM,27 µM,> 50 µM,8.59 µM,15.5 µM,7.47 µM,14.4 µM,> 50 µM,> 50 µM,7.46 µM,16.7 µM,15.8 µM,> 50 µM,6.62 µM,13.3 µM,7.82 µM,23.3 µM
CC(=O)OCCN1c2ccccc2Sc2cnccc21,,> 10 µM,,> 10 µM,,> 10 µM,,> 10 µM,,> 10 µM,,> 10 µM,,> 10 µM,,> 10 µM,,> 10 µM,,> 10 µM
O=c1[nH]ncc(Br)c1Br,1.27 µM,2.58 µM,1.72 µM,3.68 µM,13.1 µM,27.4 µM,3.45 µM,10.7 µM,4.08 µM,14.1 µM,13.3 µM,29.1 µM,1.92 µM,3.54 µM,2.71 µM,13.7 µM,3.35 µM,16 µM,1.91 µM,6.18 µM
COc1cc([N+](=O)[O-])cc2c3c(n(C)c12)[C@@]1(C)CCC2c4ccc(OCc5ccccc5)cc4CCC2C1C3 (stereo partly drawn),> 100 µM,> 100 µM,> 100 µM,> 100 µM,90.1 µM,> 100 µM,86 µM,> 100 µM,> 100 µM,> 100 µM,72.2 µM,> 100 µM,68.8 µM,> 100 µM,> 100 µM,> 100 µM,23.9 µM,63.9 µM,81.8 µM,> 100 µM
Brc1cccc(C=NC23CC4CC(CC(C4)C2)C3)c1,,> 100 µM,,> 100 µM,,> 100 µM,,> 100 µM,,> 100 µM,,> 100 µM,,> 100 µM,,> 100 µM,,> 100 µM,,> 100 µM
COc1ccc(C2=CC3CCC2C3)cc1 (stereo not drawn),,> 100 µM,,> 100 µM,,> 100 µM,,> 100 µM,,> 100 µM,,> 100 µM,,> 100 µM,,> 100 µM,,> 100 µM,,> 100 µM
O=C(/C(Br)=C/c1ccccc1)c1ccccc1,1.94 µM,3.81 µM,1.66 µM,4.68 µM,17.8 µM,38 µM,3.38 µM,14.6 µM,1.9 µM,3.48 µM,14.2 µM,28.5 µM,2.71 µM,8.38 µM,7.54 µM,21.4 µM,10.6 µM,24.2 µM,2.41 µM,7.07 µM
COc1ccc(/C=C/c2nccc3ccccc23)cc1OC,,> 10 µM,,> 10 µM,,> 10 µM,,> 10 µM,,> 10 µM,,> 10 µM,,> 10 µM,,> 10 µM,,> 10 µM,,> 10 µM
COc1cc(C2=C(c3ccccc3)COC2=O)cc(OC)c1OC,1.63 µM,> 100 µM,5.82 µM,> 56.5 µM,0.966 µM,56.4 µM,1.37 µM,> 30.6 µM,4.3 µM,> 100 µM,6.78 µM,> 58.7 µM,2.41 µM,> 27.7 µM,0.593 µM,> 31.7 µM,> 100 µM,> 100 µM,1.12 µM,5.28 µM
CC1=NN(C(=O)Nc2ccccc2)C(=O)C2CCC(=O)N12 (stereo not drawn),,> 100 µM,,> 100 µM,,> 100 µM,,> 100 µM,,> 100 µM,,> 100 µM,,> 100 µM,,> 100 µM,,> 100 µM,,> 100 µM
CC(=O)OC[C@]1(C)C=C2C(=O)[C@](C)(O)C3(CC3)C(C)=C2[C@H]1O,0.0894 µM,0.302 µM,0.0457 µM,0.364 µM,0.0282 µM,0.0844 µM,0.233 µM,2.99 µM,0.0411 µM,0.35 µM,0.172 µM,2.8 µM,0.0633 µM,0.367 µM,0.191 µM,> 34.7 µM,0.152 µM,0.35 µM,13.9 µM,> 81.5 µM
CCC[CH2][Sn]1([CH2]CCC)[O]Cc2nc(C)ccc2[O]1,2.06 µM,4.57 µM,14.9 µM,28.8 µM,16 µM,31.1 µM,3.97 µM,14.7 µM,5.04 µM,16.8 µM,19 µM,33.1 µM,1.84 µM,4.79 µM,11.1 µM,23 µM,4.63 µM,18.8 µM,1.99 µM,6.87 µM
OCc1c[nH]c2ccccc12,15.3 µM,35.8 µM,14.1 µM,42.2 µM,21 µM,45.4 µM,44.5 µM,> 100 µM,33.7 µM,93.3 µM,20.8 µM,57.9 µM,19.5 µM,48.1 µM,16 µM,37.2 µM,24.2 µM,> 100 µM,20.6 µM,64.2 µM
CC[CH2][Sn]([CH2]CC)([O]C(=O)c1cccnc1SC)[O][Sn]([CH2]CC)([CH2]CC)[O]C(=O)c1cccnc1SC,0.343 µM,0.809 µM,1.26 µM,3.79 µM,1.99 µM,4.94 µM,0.409 µM,1.09 µM,0.313 µM,0.675 µM,3.2 µM,6.24 µM,0.218 µM,0.801 µM,1.5 µM,4.43 µM,0.584 µM,1.97 µM,0.139 µM,> 100 µM
O=C(c1ccccc1)c1nnc(C(=O)c2ccccc2)nn1,,> 344 µM,,> 344 µM,,> 344 µM,,> 344 µM,,> 344 µM,,> 344 µM,,> 344 µM,,> 344 µM,,> 344 µM,,> 344 µM
O=c1/c(=C/c2ccco2)sc2nc3ccccc3n12,> 100 µM,> 100 µM,> 100 µM,> 100 µM,> 100 µM,> 100 µM,> 10 µM,> 100 µM,> 100 µM,> 100 µM,> 100 µM,> 100 µM,> 100 µM,> 100 µM,,> 100 µM,> 10 µM,> 100 µM,> 100 µM,> 100 µM
COc1cc2c(c(O)c1Br)C(=O)c1c(O)cc(C[C@H](C)O)cc1[C@H]2[C@H]1c2cc(C[C@H](C)O)cc(O)c2C(=O)c2c1cc(OC)c(Br)c2O,2.47 µM and 17.5 µM,13.7 µM and 90.7 µM,2.98 µM and 5.45 µM,46.7 µM and 28.2 µM,2.76 µM and 5.27 µM,21.4 µM and 19.4 µM,13.8 µM and 31.4 µM,67.5 µM and > 100 µM,23 µM and 14.1 µM,67.5 µM and > 100 µM,10.1 µM and 20.9 µM,32.9 µM and > 100 µM,5.85 µM and 4.83 µM,42.1 µM and 39.3 µM,5.96 µM and 26.4 µM,37.9 µM and 82.4 µM,5.09 µM and 16 µM,56.5 µM and 67 µM,2.19 µM and 3 µM,67.5 µM and 11.4 µM
CC(C)C(=O)NC(=S)Nc1ccc([N+](=O)[O-])cc1C#N,,> 100 µM,,> 100 µM,,> 100 µM,,> 100 µM,,> 100 µM,,> 100 µM,,> 100 µM,,> 100 µM,,> 100 µM,,> 100 µM
Cc1ccc(NC(=O)c2cccc(N(C)C)c2)cc1NC(=O)c1ccc(O)cc1,34 µM,99.4 µM,> 85.8 µM,> 100 µM,45.2 µM,> 100 µM,> 70 µM,> 100 µM,> 71.5 µM,> 100 µM,61.4 µM,> 100 µM,> 61.9 µM,> 100 µM,54.9 µM,> 100 µM,26.3 µM,> 81.8 µM,> 63.1 µM,> 100 µM
